# Assay results reported in patent US12673022B2, “Drug delivery system using solution” (Kyoto University, priority 2018, dated 2026).
# Tests used:
# [1] = system: EGFP reporter cells (C2C12 cells); experiment: Number of HOECHST cells detected (cell viability) in the EGFP-SSA assay; conditions: Example 1; compound 250.0 mM vs 250 mM GABA positive control on the same plate; formula (2)
# Procedure: To each of the solutions, a complex of gRNA and Cas9 protein was further dissolved. Mouse myoblasts (C2C12 cells) were contacted with each of the solutions in vitro, and target gene cleavage activity and cell viability were evaluated.
# [2] = system: C57BL/6J mouse right lower limb gastrocnemius; experiment: DNA mutation introduction efficiency using mRosa26 gRNA (T7E1 assay) after local administration; type: in vivo; conditions: Example 6; administration solution 2: 25 mM or 250 mM 2′-deoxycytidine, 6-phospho-D-gluconic acid, N-carbamyl-L-aspartic acid or 2-deoxy-D-glucose-6-phosphate, 533 mM sodium chloride; 50 μL once; Dunnett's test; FIG. 10
# Procedure: Cas9 protein (20 μg), mRosa26 gRNA (5 μg), 10×PBS (5 μL) and a 2.0 M aqueous 2′-deoxycytidine solution (6.25 μL) were mixed so as to obtain an aqueous solution having final concentrations of 400 ng/μL Cas9 protein, 100 ng/μL mRosa26 gRNA, 533 mM sodium chloride and 250 mM 2′-deoxycytidine. The concentration of the resultant solution was adjusted to be 533 mM with a 5 M aqueous sodium chloride solution, diluted with UltraPure DNase/RNase-Free Distilled Water up to a liquid volume of 50 μL and incubated at normal temperature for 15 minutes. […] The Cas9 protein herein was subjected to buffer replacement with 250 mM sodium chloride by use of Amicon® Ultra 2 mL Centrifugal Filters and then put in use.
# Cas9 protein (40 μg), mRosa26 gRNA (10 μg), 10×PBS (5 μL), and a […] compound stock solution (25 μL) were mixed so as to obtain final concentrations: 800 ng/μL Cas9 protein, 200 ng/μL mRosa26 gRNA, 533 mM sodium chloride and 250 mM compound. […]
# To the right lower limb gastrocnemius of each of 9 weeks-old male C57BL/6J mice (CLEA Japan, Inc), administration solution 1 or administration solution 2 and PBS (50 μL) were administered. […] The resultant PCR product was purified by QIAquick PCR purification kit (QIAGEN), treated with T7 Endonuclease I (NEB) and analyzed by Agilent 4200 TapeStation (Agilent). […]
# As shown in FIG. 10 and FIG. 11, to find statistical significant difference between GABA and each conditions of the compounds, Dunnett's multiple comparison test using DNA mutation introduction efficiency, Indel (%), and exon skipping efficiency, was carried out. It was determined that if P value is less than 0.05, these is a statistically significant difference. […]
# A solution for transduction containing 2′-deoxycytidine as a compound (A3) and sodium chloride as the (B) salt was prepared. […] Administration solution 1 was locally administered to the mouse right lower limb gastrocnemius and the activity to cleave a target gene was evaluated. […]
smiles,measurement,setting,value
NC(=O)N[C@@H](CC(=O)O)C(=O)O [N-Carbamyl-L-aspartic acid],Relative ratio to GABA: Number of HOECHST cells,[1],1.19
same,Genome editing efficiency (indel (%)) compared to 250 mM GABA,[2],statistically significant results compared to GABA
